Where “and” joins values, the source holds several entries; their conditions need not be identical. Identical values can stand only once. Like-named read-outs stand apart in the source and are kept apart here.
How the values were obtained:
OATP4C1 = biological target: T1, OATP4C1 (Homo sapiens, UniProt Q6ZQN7); experiment: Inhibition of OATP4C1-mediated T3 uptake in OATP4C1/MDCKII cells; conditions: for inhibition at 10 min, 100 µM / inhibition at 10 min, 50 µM: human; for alteration of OATP4C1-mediated transport (in words): 100 µM (theaflavin 50 µM); for inhibition at 10 min, 50 µM: curcumin inhibition of OATP4C1-mediated transport, 50 µM curcumin
T1 sequence (Q6ZQN7 1-724): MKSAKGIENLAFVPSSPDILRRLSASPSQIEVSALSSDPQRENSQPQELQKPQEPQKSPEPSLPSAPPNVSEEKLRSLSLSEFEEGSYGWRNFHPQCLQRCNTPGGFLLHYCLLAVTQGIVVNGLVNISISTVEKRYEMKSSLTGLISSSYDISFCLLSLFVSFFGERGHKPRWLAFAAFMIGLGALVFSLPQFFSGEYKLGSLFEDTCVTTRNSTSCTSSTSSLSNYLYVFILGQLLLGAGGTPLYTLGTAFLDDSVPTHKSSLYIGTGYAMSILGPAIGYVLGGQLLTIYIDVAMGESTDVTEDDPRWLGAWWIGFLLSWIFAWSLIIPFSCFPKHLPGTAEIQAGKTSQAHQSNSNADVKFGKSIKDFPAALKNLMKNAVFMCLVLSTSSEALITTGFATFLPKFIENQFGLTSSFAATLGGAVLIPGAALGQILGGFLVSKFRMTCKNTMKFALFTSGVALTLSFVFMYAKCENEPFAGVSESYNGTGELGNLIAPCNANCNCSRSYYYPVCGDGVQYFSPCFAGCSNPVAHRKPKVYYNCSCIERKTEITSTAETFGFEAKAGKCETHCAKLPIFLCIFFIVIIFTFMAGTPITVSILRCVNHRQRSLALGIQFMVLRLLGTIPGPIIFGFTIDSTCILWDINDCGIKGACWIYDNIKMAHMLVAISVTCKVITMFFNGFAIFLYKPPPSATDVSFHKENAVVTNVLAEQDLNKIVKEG

OAT1 = conditions: Supplementary table, cited from earlier work; for IC50: ref previous reports (superscript numbers)
OATP2B1 = conditions: Supplementary table, ref previous reports (superscript numbers), cited from earlier work; for IC50: read-out: OATP2B1 IC50; for Ki: read-out: OATP2B1 Ki (asterisk)
OATP1B3 = conditions: cited from earlier work; for IC50: read-out: OATP1B3 IC50; for IC50 / Ki: ref previous reports (superscript numbers); for Ki: read-out: OATP1B3 Ki (asterisk)
OATP1B1 = conditions: cited from earlier work; for OATP1B1 inhibition degree: ref 1 of the supplement; for Ki: read-out: OATP1B1 Ki (asterisk)
OAT3 = conditions: Supplementary table, cited from earlier work; for IC50: ref previous reports (superscript numbers)
[1] = pH 7.4, probe T3 (1 µM), OATP4C1 inhibition degree, 100 µM, Supplementary table
[2] = read-out: OATP1B1 IC50, Supplementary table, ref previous reports (superscript numbers)
[3] = Supplementary table, ref previous reports (superscript numbers)
[4] = 100 µM compound, 1 µM T3, 10 min, 37 °C, without AA
[5] = pH 7.4, probe T3 (1 µM), inhibition of OATP4C1-mediated transport, 100 µM compound, 1 µM T3, 10 min, 37 °C, without AA

Compound: Oc1cc(O)c2cc(O)c(-c3ccc(O)c(O)c3)[o+]c2c1 [Cyanidin, Cyanidin chloride]
- OATP4C1 inhibition or elevation (class) (OATP4C1; Supplementary table): Yes
- inhibition at 10 min, 100 µM (OATP4C1; [1]): 24%

Compound: O=C(O[C@@H]1Cc2c(O)cc(O)cc2O[C@@H]1c1cc(O)c(O)c(O)c1)c1cc(O)c(O)c(O)c1 [EGCG, epigallocatechin-3-gallate]
- alteration of OATP4C1-mediated transport (in words) (OATP4C1; 1 µM T3, 10 min, without AA): did not inhibit
- OATP4C1 inhibition or elevation (class) (OATP4C1; Supplementary table): No
- Ki (OAT1; ref 27 of the supplement, read-out: OAT1 Ki (asterisk)): 334 ± 58 µM
- IC50 (OATP2B1): 101 ± 9 µM
- OATP1B3 inhibition or elevation (class) (OATP1B3; Supplementary table, ref 25 of the supplement): Elevation
- IC50 (OATP1B3; Supplementary table): 8.4 ± 0.6 µM
- EC50 (OATP1B3; read-out: OATP1B3 elevation EC50, mean ± S.E., ref 25 of the supplement): 10.5 ± 1.6 µM
- IC50 (OATP1B1; [2]): 14.1 µM and 7.8 µM
- Ki (OAT3; ref 27 of the supplement, read-out: OAT3 Ki (asterisk)): 162 ± 29 µM

Compound: COc1ccc([C@@H]2CC(=O)c3c(O)cc(O[C@@H]4O[C@H](CO[C@@H]5O[C@@H](C)[C@H](O)[C@@H](O)[C@H]5O)[C@@H](O)[C@H](O)[C@H]4O)cc3O2)cc1O [Hesperidin, hesperidin]
- OATP4C1 inhibition or elevation (class) (OATP4C1; Supplementary table): No

Compound: O=c1c(O[C@@H]2O[C@H](CO)[C@H](O)[C@H](O)[C@H]2O)c(-c2ccc(O)c(O)c2)oc2cc(O)cc(O)c12 [Hyperoside]
- OATP4C1 inhibition or elevation (class) (OATP4C1; Supplementary table): No
- IC50 (OATP2B1): 29.4 ± 1.5 µM

Compound: O=c1c(O)c(-c2cc(O)c(O)c(O)c2)oc2cc(O)cc(O)c12 [Myricetin, myricetin]
- OATP4C1 inhibition or elevation (class) (OATP4C1; Supplementary table): No

Compound: C[C@@H]1O[C@@H](O[C@H]2[C@H](Oc3cc(O)c4c(c3)O[C@H](c3ccc(O)cc3)CC4=O)O[C@H](CO)[C@@H](O)[C@@H]2O)[C@H](O)[C@H](O)[C@H]1O [Naringin, naringin]
- OATP4C1 inhibition or elevation (class) (OATP4C1; Supplementary table): No
- IC50 (OATP1B3; Supplementary table): 197.5 ± 1.1 µM
- OATP1B1 inhibition degree (OATP1B1; 250 µM): < 50%
- OATP1B1 inhibition or elevation (class) (OATP1B1; [3]): Yes

Compound: C[C@@H]1O[C@@H](OC[C@H]2O[C@@H](Oc3c(-c4ccc(O)c(O)c4)oc4cc(O)cc(O)c4c3=O)[C@H](O)[C@@H](O)[C@@H]2O)[C@H](O)[C@H](O)[C@H]1O [Rutin, rutin]
- OATP4C1 inhibition or elevation (class) (OATP4C1; Supplementary table): No
- IC50 (OATP2B1): 60.7 ± 1.2 µM
- IC50 (OATP1B3; Supplementary table): 111.5 ± 1.1 µM
- OATP1B1 elevation degree (OATP1B1; 50 µM, ref 2 of the supplement): 81.1%
- OATP1B1 inhibition degree (OATP1B1; 150 µM): < 50%
- OATP1B1 inhibition or elevation (class) (OATP1B1; [3]): Elevation

Compound: O=c1c(O)cc([C@H]2Oc3cc(O)cc(O)c3C[C@H]2O)cc2c([C@H]3Oc4cc(O)cc(O)c4C[C@H]3O)cc(O)c(O)c12 [Theaflavin, theaflavin]
- alteration of OATP4C1-mediated transport (in words) (OATP4C1; 1 µM T3, 10 min, without AA): did not inhibit
- OATP4C1 inhibition or elevation (class) (OATP4C1; Supplementary table): No
- Ki (OATP2B1): 8.2 ± 1.7 µM

Compound: O=c1cc(-c2ccc(O)cc2)oc2cc(O)cc(O)c12 [apigenin]
- inhibition of OATP4C1-mediated transport (OATP4C1; [4]): 66%
- OATP4C1 inhibition or elevation (class) (OATP4C1; Supplementary table): Yes
- inhibition at 10 min, 100 µM (OATP4C1; [1]): 54%
- inhibition at 10 min, 100 µM (OATP4C1; [5]): ≥ 50%
- IC50 (OAT1): 0.212 ± 0.01 µM
- Ki (OATP1B3; Supplementary table): 16.7 ± 1.6 µM
- IC50 (OATP1B1; [2]): 53.4 ± 2.1 µM
- Ki (OATP1B1; [3]): 0.6 ± 0.2 µM
- IC50 (OAT3): 0.41 ± 0.157 µM

Compound: O=C(O)/C=C/c1ccc(O)c(O)c1 [caffeic acid, Caffeic acid]
- alteration of OATP4C1-mediated transport (in words) (OATP4C1; 1 µM T3, 10 min, without AA): did not inhibit
- OATP4C1 inhibition or elevation (class) (OATP4C1; Supplementary table): No

Compound: COc1cc(/C=C/C(=O)CC(=O)/C=C/c2ccc(O)c(OC)c2)ccc1O [curcumin]
- inhibition at 10 min, 50 µM (OATP4C1; pH 7.4, probe T3 (1 µM), absence of AA, 1 µM T3, 10 min): 33%
- inhibition at 10 min, 50 µM (OATP4C1; pH 7.4, probe T3 (1 µM), presence of 10, 100 and 1000 µM AA, 1 µM T3, 10 min): 63 to 67%
- IC50 (OATP1B1; read-out: IC50 OATP1B1 transport, no antioxidant used): 3.8 µM
- IC50 (OATP1B1; [2]): 3.81 µM

Compound: O=c1c(-c2ccc(O)cc2)coc2cc(O)ccc12 [daidzein]
- OATP4C1 inhibition or elevation (class) (OATP4C1): Yes
- inhibitory effect on OATP4C1-mediated transport in the presence of AA compared with its absence (OATP4C1): weakened
- inhibition at 10 min, 100 µM (OATP4C1; [1]): 40%
- inhibition at 10 min, 100 µM (OATP4C1; [5]): 40%
- IC50 (OATP2B1): 22.3 µM and 20.7 µM

Compound: O=c1oc2c(O)c(O)cc3c(=O)oc4c(O)c(O)cc1c4c23 [ellagic acid]
- alteration of OATP4C1-mediated transport (in words) (OATP4C1; 1 µM T3, 10 min, without AA): did not inhibit
- elevation of OATP4C1-mediated transport (OATP4C1; [4]): 13%
- OATP4C1 elevation degree (OATP4C1; 100 µM, Supplementary table): 13%
- OATP4C1 inhibition or elevation (class) (OATP4C1; Supplementary table): Elevation
- IC50 (OAT1): 0.207 µM

Compound: COc1cc(/C=C/C(=O)O)ccc1O [ferulic acid, Ferulic acid]
- alteration of OATP4C1-mediated transport (in words) (OATP4C1; 1 µM T3, 10 min, without AA): did not inhibit
- OATP4C1 inhibition or elevation (class) (OATP4C1; Supplementary table): No
- IC50 (OAT1): 9.01 µM
- IC50 (OAT3): 7.35 ± 3.73 µM

Compound: O=c1c(O)c(-c2ccc(O)c(O)c2)oc2cc(O)ccc12 [fisetin]
- inhibitory effect on OATP4C1-mediated transport in the presence of AA compared with its absence (OATP4C1; 100 µM compound, 10 µM AA): weakened
- OATP4C1 inhibition or elevation (class) (OATP4C1; Supplementary table): No
- inhibition at 10 min, 100 µM (OATP4C1; [5]): 24%

Compound: O=C(O)c1cc(O)c(O)c(O)c1 [gallic acid, Gallic acid]
- IC50 (OATP1B3; Supplementary table): 1.6 ± 0.6 µM

Compound: O=c1c(-c2ccc(O)cc2)coc2cc(O)cc(O)c12 [genistein]
- inhibitory effect on OATP4C1-mediated transport in the presence of AA compared with its absence (OATP4C1; 100 µM compound, 10 µM AA): weakened
- OATP4C1 inhibition or elevation (class) (OATP4C1; Supplementary table): Yes
- inhibition at 10 min, 100 µM (OATP4C1; pH 7.4): 42%
- IC50 (OATP1B1; [2]): 14.9 ± 3.76 µM

Compound: COc1cc(-c2oc3cc(O)cc(O)c3c(=O)c2O)ccc1O [isorhamnetin]
- inhibitory effect on OATP4C1-mediated transport in the presence of AA compared with its absence (OATP4C1; 100 µM compound, 10 µM AA): weakened
- OATP4C1 inhibition or elevation (class) (OATP4C1; Supplementary table): Yes
- inhibition at 10 min, 100 µM (OATP4C1; pH 7.4): 18%
- IC50 (OATP2B1): 0.82 µM
- IC50 (OATP1B3; Supplementary table): 3.1 µM

Compound: O=c1cc(-c2ccc(O)c(O)c2)oc2cc(O)cc(O)c12 [luteolin]
- inhibitory effect on OATP4C1-mediated transport in the presence of AA compared with its absence (OATP4C1; 100 µM compound, 10 µM AA): weakened
- OATP4C1 inhibition or elevation (class) (OATP4C1; Supplementary table): Yes
- inhibition at 10 min, 100 µM (OATP4C1; [1]): 52%
- inhibition at 10 min, 100 µM (OATP4C1; [5]): ≥ 50%
- IC50 (OATP2B1): 0.42 µM
- IC50 (OAT3): 4.2 µM

Compound: O=c1c(O)c(-c2ccc(O)cc2O)oc2cc(O)cc(O)c12 [morin]
- inhibitory effect on OATP4C1-mediated transport in the presence of AA compared with its absence (OATP4C1; 100 µM compound, 10 µM AA): weakened
- OATP4C1 inhibition or elevation (class) (OATP4C1; Supplementary table): Yes
- inhibition at 10 min, 100 µM (OATP4C1; [1]): 57%
- inhibition at 10 min, 100 µM (OATP4C1; [5]): ≥ 50%
- IC50 (OAT1): < 0.3 µM and 0.5 µM

Compound: O=c1c(O)c(-c2ccc(O)c(O)c2)oc2cc(O)cc(O)c12 [quercetin]
- inhibitory effect on OATP4C1-mediated transport in the presence of AA compared with its absence (OATP4C1; 100 µM compound, 10 µM AA): weakened
- OATP4C1 inhibition or elevation (class) (OATP4C1; Supplementary table): Yes
- inhibition at 10 min, 100 µM (OATP4C1; [1]): 50%
- inhibition at 10 min, 100 µM (OATP4C1; [5]): ≥ 50%
- Ki (OATP2B1): 8.7 ± 0.1 µM
- IC50 (OATP1B3; Supplementary table): 3.22 µM
- Ki (OATP1B3; Supplementary table): 7.8 ± 1.7 µM
- Ki (OATP1B1; [3]): 8.8 ± 0.8 µM
